Data published in US7183257B2, “Use of RPL41 to treat infections and inhibit cancer” (priority 2004, dated 2007).
Peptide text beside a SMILES is read from it. * marks the point of attachment. Cbz = O=C(OCc1ccccc1)*; CH2F = FC*

Experiments:
[1] = test system: five tumor cell lines (HTB72, CRL1435, CRL5800, HCT116, MCF7); test: Caspase inhibitor z-VAD.fmk with RPL41 (morphology and Δψm assays); assay type: cell-based; conditions: Z-VAD.fmk 50 μM with RPL41 6.7 μM, 8 hours
Description: FIG. 10—RPL41 induced cell death is caspase independent. […].
. The cell death induced by RPL41, therefore, is likely to be caspase-independent. A broad-spectrum caspase inhibitor z-VAD.fmk was also incubated with five tumor cell lines, in the presence of RPL41, to determine whether the inhibition of caspases will attenuate RPL41 induced cell death. […]

[2] = test system: 24 tumor cell lines of various tissue types (ATCC); assay type: cell-based
[3] = Isoelectric point of peptide; assay type: physicochemical

COC(=O)C[C@H](NC(=O)[C@H](C)NC(=O)[C@@H](NC(=O)OCc1ccccc1)C(C)C)C(=O)CF [z-VAD.fmk] (Cbz-Val-Ala-Asp(OMe)-CH2F)
suppression of RPL41 induced cell death [1]: failed to suppress the RPL41 induced cell death

MLISSGLKDGIRSGI [control peptide unrelated to RPL41]
effect on tumor cell growth ([2]; concentration ten times higher than that of RPL41): no effect on tumor cell growth | pI [3]: 8.5

NH2-KARMRMKRKLRKRMRKRQRSRKWKR-OH (H-KARMRMKRKLRKRMRKRQRSRKWKR-OH)
inhibition effect on tumor cell growth after pre-treatment of peptide with proteases ([2]; peptides pre-treated with proteases (DIGEST-ALL, Zymed)): completely abolished
